The record followed here is paper PMC5725709, “PufQ regulates porphyrin flux at the haem/bacteriochlorophyll branchpoint of tetrapyrrole biosynthesis via interactions with ferrochelatase” (Molecular Microbiology, 2017).

This assay addresses T1, FeCH (ferrochelatase) (Cereibacter sphaeroides, UniProt Q3IYK5, Y58H).
T1 construct: gene HemH; His-tagged, pET14b, E. coli Rosetta pLysS
Briefly: spectrophotometric ferrochelatase assay (DIX consumption at […] nm, isosbestic reference […] nm). It counts as biochemical. To be noted: 1 µM FeCH, 30 µM DIX, 100 µM CoCl2, 25 mM Tris pH 7.4, 0.15% Tween 80; active, substantially lower than wild type.

Structures are written as SMILES.

T1 sequence (Q3IYK5 entry or part of it Y58H): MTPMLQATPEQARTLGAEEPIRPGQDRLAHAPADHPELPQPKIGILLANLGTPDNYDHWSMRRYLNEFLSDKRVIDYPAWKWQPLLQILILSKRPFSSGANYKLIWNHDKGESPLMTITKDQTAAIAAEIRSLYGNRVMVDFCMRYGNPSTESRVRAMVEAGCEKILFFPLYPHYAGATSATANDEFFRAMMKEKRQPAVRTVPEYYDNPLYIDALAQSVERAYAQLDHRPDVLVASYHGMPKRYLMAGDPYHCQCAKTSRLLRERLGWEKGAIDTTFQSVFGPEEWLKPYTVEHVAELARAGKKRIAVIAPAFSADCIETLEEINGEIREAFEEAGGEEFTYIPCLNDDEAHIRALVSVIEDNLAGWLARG

For `CC1=C(CCC(=O)O)c2cc3nc(cc4[nH]c(cc4C)cc4[nH]c(cc1n2)cc4C)C(C)=C3CCC(=O)O` [deuteroporphyrin IX], the “spectrophotometric ferrochelatase assay (DIX consumption at 496 nm, isosbestic r)” value is listed as “the ΔpufQ PSvar version of the FeCH protein is active”.
